Experimental data: paper PMC3981784 (PLoS ONE, 2014)

Legend:
[1] = system: purified influenza virus A/WSN/33; conditions: PGG 25 μM; TritonX-100 0.5% (v/v)
[2] = system: A/WSN/33 (H1N1); assay: Hemagglutination inhibition assay with chicken red blood cells; conditions: Influenza A virus, Erythrocyte, in Gallus gallus, read-out: EC50, inhibition of virus-induced hemagglutination
[3] = system: purified influenza virus A/WSN/33; assay: Atomic force microscopy (AFM) of virus particles; conditions: 50 μM; for aggregation of viral particles (AFM images): 1 hour on ice; for heights of virions (AFM): versus DMSO-treated virions
[4] = system: influenza virus A/WSN/33; assay: Immunofluorescence microscopy of intra-nuclear nucleoprotein accumulation (virus entry) in MDCK cells; type: cell-based
[5] = system: recombinant HA of A/Puerto Rico/8/1934 (H1N1), A/California/04/2009 (H1N1), A/Netherlands/219/03 (H7N7), and A/Anhui/1/2005 (H5N1); type: biochemical, influenza A virus; conditions: HA incubated on ice 30 min with compound; four HA subtypes
[6] = system: hemagglutinin of A/Puerto Rico/8/1934 (H1N1), A/California/04/2009 (H1N1), A/Netherlands/219/03 (H7N7), and A/Anhui/1/2005 (H5N1); type: binding, influenza A virus; conditions: four HA subtypes
[7] = system: MDCK cells; design: method as in PMID 21479599, PMID 19575286; conditions: ref [29], [30], read-out: cytotoxicity EC50; cited from earlier work
[8] = system: influenza virus; design: method as in PMID 21479599, PMID 19575286; conditions: ref [29], [30]; read-out: active concentration EC50 (anti-influenza virus activity); cited from earlier work
[9] = target: hemagglutinin derived from influenza A/California/04/2009(H1N1) (Influenza A virus, UniProt C3W5S1); assay: Competition binding assay with sialic acid (native PAGE band gray scale); type: biochemical; conditions: for HA aggregation (decrease of relative density of HA monomer) / HA aggregation (decrease of relative density of HA monomer), percent: 6 μM PGG; for hemagglutinin aggregation (native PAGE lane): 600 μM SA alone (Lane 2), 6 μM PGG alone (Lane 3)
Chain of hemagglutinin derived from influenza A/California/04/2009(H1N1) (C3W5S1 entry or part of it, added parts left off): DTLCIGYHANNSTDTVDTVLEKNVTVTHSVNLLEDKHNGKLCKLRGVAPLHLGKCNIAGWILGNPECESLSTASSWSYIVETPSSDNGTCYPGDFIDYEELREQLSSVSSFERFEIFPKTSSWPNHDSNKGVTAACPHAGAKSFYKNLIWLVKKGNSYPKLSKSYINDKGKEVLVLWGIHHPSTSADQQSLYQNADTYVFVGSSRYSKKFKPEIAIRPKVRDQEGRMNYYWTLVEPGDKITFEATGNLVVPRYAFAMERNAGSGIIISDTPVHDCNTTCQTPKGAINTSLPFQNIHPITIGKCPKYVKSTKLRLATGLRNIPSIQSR

Q: With TritonX-100 [reference compound] as the molecule, how does the “membrane structures of the virus particles (TEM)” value [1] read?
A: destroyed membrane structures

Q: For `O=C(OC[C@H]1O[C@@H](OC(=O)c2cc(O)c(O)c(O)c2)[C@H](OC(=O)c2cc(O)c(O)c(O)c2)[C@@H](OC(=O)c2cc(O)c(O)c(O)c2)[C@@H]1O)c1cc(O)c(O)c(O)c1` [TGG, 1,2,3,6-Tetra-O-galloyl-beta-D-glucose], which EC50 [2] is on record?
A: 1 ± 1 nM

Q: And the “aggregation of viral particles (AFM images)” value (“aggregation of viral particles” below) [3]?
A: significantly aggregated

Q: What about the “heights of virions (AFM)” value [3] of the same molecule?
A: significantly greater than that of DMSO-treated virions

Q: And the “intra-nuclear accumulation of virus nucleoprotein (NP), virus entry” value (“intra-nuclear accumulation” below) [4]?
A: significantly decreased in the number of nucleoprotein-positive nucleus

Q: With `O=C(O)c1cc(O)c(O)c(O)c1` [GA, Gallic acid] as the molecule, how does the “HA aggregation on native PAGE (HA polymer formation)” value [5] read?
A: not observed

Q: And the “interactions with HAs (SPR)” value [6]?
A: No significant interactions

Q: What about the EC50 [2] of the same molecule?
A: > 50000 nM

Q: And the “aggregation of viral particles” value [3]?
A: dispersive

Q: And the “intra-nuclear accumulation” value [4]?
A: viral NP was detected in the nucleus

Q: For `O=C(OC[C@H]1O[C@@H](OC(=O)c2cc(O)c(O)c(O)c2)[C@H](OC(=O)c2cc(O)c(O)c(O)c2)[C@@H](OC(=O)c2cc(O)c(O)c(O)c2)[C@@H]1OC(=O)c1cc(O)c(O)c(O)c1)c1cc(O)c(O)c(O)c1` [PGG, penta-galloyl-glucose], which EC50 [7] is on record?
A: 31500 ± 4600 nM

Q: What about the EC50 [2] of the same molecule?
A: 5 ± 2 nM

Q: What about the EC50 [8] of the same molecule?
A: 2510 ± 310 nM

Q: And the “HA aggregation (decrease of relative density of HA monomer)” value ([9]; with the presence of 600 μM SA)?
A: 0.22

Q: What about the “HA aggregation (decrease of relative density of HA monomer), percent” value ([9]; with the presence of 600 μM SA) of the same molecule?
A: 20.7%

Q: What about the “HA aggregation (decrease of relative density of HA monomer)” value ([9]; without SA) of the same molecule?
A: 0.33

Q: What about the “HA aggregation (decrease of relative density of HA monomer), percent” value ([9]; without SA) of the same molecule?
A: 33.2%

Q: What about the “hemagglutinin aggregation (native PAGE lane)” value [9] of the same molecule?
A: increases hemagglutinin aggregation

Q: What about the “aggregation of viral particles” value [3] of the same molecule?
A: significantly aggregated

Q: And the “heights of virions (AFM)” value [3]?
A: significantly greater than that of DMSO-treated virions

Q: What about the “membrane structures of the virus particles (TEM)” value [1] of the same molecule?
A: remain undisrupted

Q: And the “intra-nuclear accumulation” value [4]?
A: significantly decreased in the number of nucleoprotein-positive nucleus

Q: For `O=C(O[C@@H]1Cc2c(O)cc(O)cc2O[C@@H]1c1cc(O)c(O)c(O)c1)c1cc(O)c(O)c(O)c1` [EGCG, (−)-epigallocatechin-3-gallate], which EC50 [2] is on record?
A: 430 ± 1 nM

Q: For `CC(=O)N[C@H]1[C@H]([C@H](O)[C@H](O)CO)OC(O)(C(=O)O)C[C@@H]1O` (stereo partly shown) [SA, Sialic acid, reference compound], which “hemagglutinin aggregation (native PAGE lane)” value [9] is on record?
A: reduces hemagglutinin aggregation

Q: For `O=c1oc2c(O)c(O)cc3c(=O)oc4c(O)c(O)cc1c4c23` [EA, Ellagic acid], which EC50 [2] is on record?
A: 446 nM
